Consider 30 compounds from patent publication US11976059B2 (KOREA RESEARCH INSTITUTE OF CHEMICAL TECHNOLOGY, priority 2018, dated 2024).

Sequence of EGFR L858R/T790M/C797S mutant enzyme (P00533 25-1210 T790M/C797S/L858R): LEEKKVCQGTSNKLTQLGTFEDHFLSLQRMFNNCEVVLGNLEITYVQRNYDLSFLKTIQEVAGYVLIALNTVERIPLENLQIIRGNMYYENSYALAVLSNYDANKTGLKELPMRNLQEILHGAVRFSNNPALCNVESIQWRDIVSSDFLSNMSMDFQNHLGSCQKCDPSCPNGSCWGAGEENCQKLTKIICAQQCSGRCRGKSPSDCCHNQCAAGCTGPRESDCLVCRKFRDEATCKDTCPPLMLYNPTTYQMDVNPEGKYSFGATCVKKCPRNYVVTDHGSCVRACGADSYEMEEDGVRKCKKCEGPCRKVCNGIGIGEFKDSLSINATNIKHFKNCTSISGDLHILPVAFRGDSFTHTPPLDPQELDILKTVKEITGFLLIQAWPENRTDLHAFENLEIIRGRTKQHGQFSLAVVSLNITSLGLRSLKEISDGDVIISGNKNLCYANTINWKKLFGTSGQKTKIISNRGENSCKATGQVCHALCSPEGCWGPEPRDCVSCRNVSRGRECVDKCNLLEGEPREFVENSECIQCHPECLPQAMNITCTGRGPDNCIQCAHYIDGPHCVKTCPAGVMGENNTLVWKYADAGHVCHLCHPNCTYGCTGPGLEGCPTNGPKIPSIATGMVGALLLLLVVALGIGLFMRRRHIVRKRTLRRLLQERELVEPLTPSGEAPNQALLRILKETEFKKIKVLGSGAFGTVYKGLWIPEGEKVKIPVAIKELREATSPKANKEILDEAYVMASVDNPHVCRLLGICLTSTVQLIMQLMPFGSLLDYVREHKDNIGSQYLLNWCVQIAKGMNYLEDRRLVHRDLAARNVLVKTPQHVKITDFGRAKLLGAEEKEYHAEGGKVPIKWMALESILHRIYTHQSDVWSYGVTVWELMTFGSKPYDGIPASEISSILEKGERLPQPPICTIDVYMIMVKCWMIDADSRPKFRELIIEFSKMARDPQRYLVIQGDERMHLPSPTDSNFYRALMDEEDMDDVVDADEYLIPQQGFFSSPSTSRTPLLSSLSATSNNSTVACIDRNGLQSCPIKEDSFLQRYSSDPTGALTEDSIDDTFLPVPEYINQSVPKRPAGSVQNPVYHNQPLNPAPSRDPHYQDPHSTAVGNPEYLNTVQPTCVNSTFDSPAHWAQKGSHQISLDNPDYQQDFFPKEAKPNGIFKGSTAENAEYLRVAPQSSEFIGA

The target of this test is EGFR L858R/T790M/C797S mutant enzyme (Homo sapiens (Human), UniProt P00533, C797S/L858R/T790M). Nature of the test: EGFR mutant enzyme inhibition, HTRF system (Cisbio). The conditions noted are these: ATP 1 mM, 37° C. for 2 hours. The format is biochemical. The procedure:
In order to evaluate the inhibitory activity of the compound represented by formula 1 according to the present invention against EGFR mutation, the following experiment was performed.
The activity of the compound of the present invention against EGFR mutant enzyme was measured using the HTRF system of Cisbio Co. As an EGFR L858R/T790M/C797S mutant enzyme, a protein provided by SignalChem was purchased and used as an enzyme source.
The composition of the assay buffer used for the activity measurement was as follows: 50 mM Tris-HCl (pH 7.5), 100 mM NaCl, 7.5 mM MgCl2, 3 mM KCl, 0.01% Tween 20, 0.1% BSA, and 1 mM DTT. Herein, an enzyme reaction was performed using a peptide substrate labeled with ATP at the concentration of 1 mM and biotin at the concentration of 0.5 μM. The analysis of the EGFR activity inhibitory effect of the compound was performed according to the following analytical reaction recipe.
Component 1: 4 μl of EGFR mutant enzyme
Component 2: 2 μl of compound solution
Component 3: 4 μl of ATP and biotin-labeled peptide mixture
The enzyme reaction was initiated by mixing the component 1 and the component 2 first and then adding the component 3 thereto. After reacting the mixture at 37° C. for 2 hours, 10 μl of a measurement solution consisting of streptavidin-XL665 and europium-labeled anti-phosphotyrosine antibody provided by Cisbio was added to the enzyme reaction solution, followed by reaction at room temperature for 1 hour. Finally, the ratio of the fluorescence values at 615 nm and 665 nm was calculated using Envision equipment of Perkin-Elmer to quantitatively measure the enzyme activity and confirm the inhibitory ability of the compound. The values measured at 7 concentrations of the compound were analyzed using Prism program (version 5.01, Graphpad Software, Inc.), and the IC50 value, an index of the inhibitory ability of the compound, was calculated.
A general note: TR-FRET usually uses a lanthanide donor and a delayed reading to cut background.
What is called IC50 is the concentration needed to halve the response being measured. `CN1CCN(c2ccc(-c3ccc4c(c3)C(=O)N(C(c3nc5ccccc5[nH]3)c3cc(F)ccc3O)C4)cc2)CC1` (stereo not drawn) [Example 18, 2-((1H-benzo[d]imidazole-2-yl)(5-fluoro-2-hydroxyphenyl)methyl)-6-(4-(4-methylpiperazine-1-yl)phenyl)isoindolin-1-one] returned an IC50 of 130 nM. That is a sub-micromolar value.
Next, `O=C1c2ccccc2CN1[C@@H](c1cc2ccccc2[nH]1)c1ccccc1O` [Example 19, (R)-2-((2-hydroxyphenyl)(1H-indole-2-yl)methyl)isoindolin-1-one]: greater than 10000 nM; `Cc1ccc(O)c([C@H](c2cc3ccccc3[nH]2)N2Cc3ccccc3C2=O)c1` [Example 20, (R)-2-((2-hydroxy-5-methylphenyl)(1H-indole-2-yl)methyl)isoindolin-1-one]: 1600 nM; `O=C1c2ccccc2CN1[C@@H](c1cc2ccccc2[nH]1)c1c(O)ccc(F)c1F` [Example 21, (R)-2-((2,3-difluoro-6-hydroxyphenyl)(1H-indole-2-yl)methyl)isoindolin-1-one]: greater than 10000 nM.
Consider `O=C1c2ccccc2CN1[C@@H](c1cc2ccccc2[nH]1)c1cc(F)c(F)cc1O` [Example 22, (R)-2-((4,5-difluoro-2-hydroxyphenyl)(1H-indole-2-yl)methyl)isoindolin-1-one], for which the IC50 was greater than 10000 nM.
The compound `O=C1c2ccccc2CN1[C@@H](c1cc2ccccc2[nH]1)c1cc(F)ccc1O` [Example 23, (R)-2-((5-fluoro-2-hydroxyphenyl)(1H-indole-2-yl)methyl)isoindolin-1-one] displayed an IC50 of 2400 nM. This counts as single-digit micromolar.
`O=C1c2ccccc2CN1[C@H](c1cc2ccccc2[nH]1)c1cc(F)ccc1O` [Example 24, (S)-2-((5-fluoro-2-hydroxyphenyl)(1H-indole-2-yl)methyl)isoindolin-1-one]: the IC50 is 3300 nM.
Take `O=C1c2ccccc2CN1[C@@H](c1cc2ccccc2[nH]1)c1c(O)cccc1F` [Example 25, (R)-2-((2-fluoro-6-hydroxyphenyl)(1H-indole-2-yl)methyl)isoindolin-1-one]: the 50% inhibitory concentration (IC50) is greater than 10000 nM.
`O=C1c2ccccc2CN1[C@@H](c1cc2ccccc2[nH]1)c1cc(Cl)ccc1O` [Example 26, (R)-2-((5-chloro-2-hydroxyphenyl)(1H-indole-2-yl)methyl)isoindolin-1-one]: the IC50 was 190 nM.
Next, `O=C1c2ccccc2CN1[C@H](c1cc2cccnc2[nH]1)c1cc(F)ccc1O` [Example 27, (S)-2-((5-fluoro-2-hydroxyphenyl)(1H-pyrrolo[2,3-b]pyridine-2-yl)methyl)isoindolin-1-one]: 280 nM; `Nc1ccc(-c2ccc3c(c2)C(=O)N([C@@H](c2cc4ccccc4[nH]2)c2ccccc2O)C3)cc1` [Example 28, (R)-6-(4-aminophenyl)-2-((2-hydroxyphenyl)(1H-indole-2-yl)methyl)isoindolin-1-one]: 160 nM; `Nc1ccc(-c2ccc3c(c2)C(=O)N([C@@H](c2cc4ccccc4[nH]2)c2cc(F)ccc2O)C3)cc1` [Example 29, (R)-6-(4-aminophenyl)-2-((5-fluoro-2-hydroxyphenyl)(1H-indole-2-yl)methyl)isoindolin-1-one]: 280 nM.
In turn, `Nc1ccc(-c2ccc3c(c2)C(=O)N([C@@H](c2cc4ccccc4[nH]2)c2cc(Cl)ccc2O)C3)cc1` [Example 30, (R)-6-(4-aminophenyl)-2-((5-chloro-2-hydroxyphenyl)(1H-indole-2-yl)methyl)isoindolin-1-one] registered an IC50 of 120 nM.
Next, `O=C1c2cc(-c3ccc(N4CCNCC4)cc3)ccc2CN1[C@@H](c1cc2ccccc2[nH]1)c1ccccc1O` [Example 31, (R)-2-((2-hydroxyphenyl)(1H-indole-2-yl)methyl)-6-(4-(piperazine-1-yl)phenyl)isoindolin-1-one]: 18 nM.
The value for `O=C1c2cc(C3=CCNCC3)ccc2CN1[C@@H](c1cc2ccccc2[nH]1)c1ccccc1O` [Example 34, (R)-2-((2-hydroxyphenyl)(1H-indole-2-yl)methyl)-6-(1,2,3,6-tetrahydropyridine-4-yl)isoindolin-1-one] was 2900 nM; that for `O=C1c2cc(C3=CCNCC3)ccc2CN1[C@@H](c1cc2ccccc2[nH]1)c1cc(F)ccc1O` [Example 35, (R)-2-((5-fluoro-2-hydroxyphenyl)(1H-indole-2-yl)methyl)-6-(1,2,3,6-tetrahydropyridine-4-yl)isoindolin-1-one] was 730 nM; that for `O=C1c2cc(C3=CCNCC3)ccc2CN1[C@@H](c1cc2ccccc2[nH]1)c1cc(Cl)ccc1O` [Example 36, (R)-2-((5-chloro-2-hydroxyphenyl)(1H-indole-2-yl)methyl)-6-(1,2,3,6-tetrahydropyridine-4-yl)isoindolin-1-one] was 2400 nM.
The compound `O=C1c2cc(N3CCNCC3)ccc2CN1[C@@H](c1cc2ccccc2[nH]1)c1cc(F)ccc1O` [Example 37, (R)-2-((5-fluoro-2-hydroxyphenyl)(1H-indole-2-yl)methyl)-6-(piperazine-1-yl)isoindolin-1-one] registered a half-inhibitory concentration (IC50) greater than 10000 nM.
For the compound `CN1CCN(c2ccc3c(c2)C(=O)N([C@@H](c2cc4ccccc4[nH]2)c2cc(F)ccc2O)C3)CC1` [Example 38, (R)-2-((5-fluoro-2-hydroxyphenyl)(1H-indole-2-yl)methyl)-6-(4-methylpiperazine-1-yl)isoindolin-1-one], the IC50 came out at 7600 nM.
With `O=C1c2cc(-c3ccc(N4CCOCC4)cc3)ccc2CN1C(c1nc2ccccc2[nH]1)c1cc(F)ccc1O` (stereo not drawn) [Example 39, 2-((1H-benzo[d]imidazole-2-yl)(5-fluoro-2-hydroxyphenyl)methyl)-6-(4-morpholinophenyl)isoindolin-1-one], the concentration for half-maximal inhibition (IC50) is 960 nM. This IC50 is about 7.9-fold lower than that of the compound before.
The compound `O=C1c2cc(-c3ccc(N4CCOCC4)cc3)ccc2CN1C(c1nc2ccccc2[nH]1)c1cc(Cl)ccc1O` (stereo not drawn) [Example 40, 2-((1H-benzo[d]imidazole-2-yl)(5-chloro-2-hydroxyphenyl)methyl)-6-(4-morpholinophenyl)isoindolin-1-one] showed an IC50 of 370 nM.
The value for `O=C1c2cc(-c3ccc(-c4ccncc4)cc3)ccc2CN1C(c1nc2ccccc2[nH]1)c1cc(F)ccc1O` (stereo not drawn) [Example 41, 2-((1H-benzo[d]imidazole-2-yl)(5-fluoro-2-hydroxyphenyl)methyl)-6-(4-(pyridine-4-yl)phenyl)isoindolin-1-one] was 220 nM.
Compound `O=C1c2cc(-c3ccc(-c4ccncc4)cc3)ccc2CN1C(c1nc2ccccc2[nH]1)c1cc(Cl)ccc1O` (stereo not drawn) [Example 42, 2-((1H-benzo[d]imidazole-2-yl)(5-chloro-2-hydroxyphenyl)methyl)-6-(4-(pyridine-4-yl)phenyl)isoindolin-1-one] gave an IC50 of 450 nM.
Compound `CN1CCN(c2ccc(-c3ccc4c(c3)C(=O)N([C@@H](c3cc5ccccc5[nH]3)c3cc(F)ccc3O)C4)cc2)CC1` [Example 43, (R)-2-((5-fluoro-2-hydroxyphenyl)(1H-indole-2-yl)methyl)-6-(4-(4-methylpiperazine-1-yl)phenyl)isoindolin-1-one] had a half-inhibitory concentration (IC50) of 210 nM.
In the case of `CN1CCN(c2ccc(-c3ccc4c(c3)C(=O)N([C@@H](c3cc5ccccc5[nH]3)c3cc(Cl)ccc3O)C4)cc2)CC1` [Example 44, (R)-2-((5-chloro-2-hydroxyphenyl)(1H-indole-2-yl)methyl)-6-(4-(4-methylpiperazine-1-yl)phenyl)isoindolin-1-one], the IC50 was found to be 190 nM.
`O=C1c2cc(-c3ccc(N4CCOCC4)cc3)ccc2CN1[C@@H](c1cc2ccccc2[nH]1)c1cc(F)ccc1O` [Example 45, (R)-2-((5-fluoro-2-hydroxyphenyl)(1H-indole-2-yl)methyl)-6-(4-morpholinophenyl)isoindolin-1-one] returned an IC50 of 280 nM. This IC50 and that of the compound before are within 1.5-fold of each other.
As to `O=C1c2cc(-c3ccc(N4CCOCC4)cc3)ccc2CN1[C@@H](c1cc2ccccc2[nH]1)c1cc(Cl)ccc1O` [Example 46, (R)-2-((5-chloro-2-hydroxyphenyl)(1H-indole-2-yl)methyl)-6-(4-morpholinophenyl)isoindolin-1-one], half-maximal inhibition (IC50) was put at 110 nM. This IC50 lies about 2.5-fold lower than the previous one.
The value for `O=C1c2cc(-c3ccc(-c4ccncc4)cc3)ccc2CN1[C@@H](c1cc2ccccc2[nH]1)c1cc(F)ccc1O` [Example 47, (R)-2-((5-fluoro-2-hydroxyphenyl)(1H-indole-2-yl)methyl)-6-(4-(pyridine-4-yl)phenyl)isoindolin-1-one] was 85 nM.
The value for `O=C1c2cc(-c3ccc(-c4ccncc4)cc3)ccc2CN1[C@@H](c1cc2ccccc2[nH]1)c1cc(Cl)ccc1O` [Example 48, (R)-2-((5-chloro-2-hydroxyphenyl)(1H-indole-2-yl)methyl)-6-(4-(pyridine-4-yl)phenyl)isoindolin-1-one] was greater than 10000 nM.
With `O=C1c2cc(-c3ccc(N4CCNCC4)cc3)ccc2CN1[C@@H](c1cc2cccnc2[nH]1)c1cc(F)ccc1O` [Example 49, (R)-2-((5-fluoro-2-hydroxyphenyl)(1H-pyrrolo[2,3-b]pyridine-2-yl)methyl)-6-(4-(piperazine-4-yl)phenyl)isoindolin-1-one], 69 nM corresponded to half-maximal inhibition (IC50).
